Patent US3983105A, “Penicillins” (Bayer Aktiengesellschaft, priority 1971, dated 1976)
“And” between values parts separate entries of the source, which are not always exact repeats. Equal values may be shown once.

Legend:
Escherichia coli = test: MIC, test tube serial dilution, Escherichia coli; assay type: cell-based
Pseudomonas aeruginosa = test: MIC, test tube serial dilution, Pseudomonas aeruginosa; assay type: cell-based
Providencia = test: MIC, test tube serial dilution, Providencia; assay type: cell-based; settings: strain 930
Proteus mirabilis = test: MIC, test tube serial dilution, Proteus mirabilis; assay type: cell-based
Proteus morganii = test: MIC, test tube serial dilution, Proteus morganii; assay type: cell-based
Streptococcus faecalis = test: MIC, test tube serial dilution, Streptococcus faecalis; assay type: cell-based
Staphylococcus aureus = test: MIC, test tube serial dilution, Staphylococcus aureus; assay type: cell-based
Serratia marcescens = test: MIC, test tube serial dilution, Serratia marcescens; assay type: cell-based
Proteus vulgaris = test: MIC, test tube serial dilution, Proteus vulgaris; assay type: cell-based
Haemophilus influenzae = test: MIC, test tube serial dilution, Haemophilus influenzae; assay type: cell-based
Klebsiella-Aerobacter [1] = settings: in vivo; cited from earlier work
Proteus rettgeri = test: MIC, test tube serial dilution, Proteus rettgeri; assay type: cell-based
Klebsiella-Aerobacter [2] = test: MIC, test tube serial dilution, Klebsiella-Aerobacter; assay type: cell-based
in vivo = settings: mouse, iv

Structure (SMILES): CC1(C)S[C@@H]2[C@H](NC(=O)C(C(=O)O)c3ccccc3)C(=O)N2[C@H]1C(=O)O (some centres unmarked) [Carbenicillin, reference compound]
- MIC (Escherichia coli; strain 14, 24 hours, 37°C): 1.6 U/ml
- MIC (Escherichia coli; strain 1465): > 400 U/ml
- MIC (Escherichia coli; strain A 261, 24 hours, 37°C): 400 U/ml
- MIC (Escherichia coli; strain B 94): 1.6 U/ml
- MIC (Escherichia coli; strain N): 6 U/ml
- MIC (Escherichia coli; strain S): 400 U/ml
- MIC (Escherichia coli; strain T 7): > 400 U/ml
- MIC (Escherichia coli; strain T 20/2): > 400 U/ml
- MIC (Pseudomonas aeruginosa; strain A): 25 U/ml
- MIC (Pseudomonas aeruginosa; strain Bonn, 24 hours, 37°C): 200 U/ml
- MIC (Pseudomonas aeruginosa; strain E 27 500): 100 U/ml
- MIC (Pseudomonas aeruginosa; strain F 41, 24 hours, 37°C): 100 U/ml
- MIC (Pseudomonas aeruginosa; strain V 10 797): 50 U/ml
- MIC (Pseudomonas aeruginosa; strain V 10 818): 100 U/ml
- MIC (Pseudomonas aeruginosa; strain V 10 887): 100 U/ml
- MIC (Pseudomonas aeruginosa; strain V 10 900): 50 U/ml
- MIC (Pseudomonas aeruginosa; strain Walter, 24 hours, 37°C): 100 U/ml
- MIC (Providencia): 6 U/ml
- MIC (Proteus mirabilis; Sp.): 1.6 U/ml
- MIC (Proteus mirabilis; strain 605): 400 U/ml
- MIC (Proteus mirabilis; strain G.): 1.6 U/ml
- MIC (Proteus morganii; strain 1 102): > 800 U/ml
- MIC (Proteus morganii; strain 932, 24 hours, 37°C): 6 U/ml
- MIC (Streptococcus faecalis; strain 8 698): 100 U/ml
- MIC (Streptococcus faecalis; strain 8 709): 200 U/ml
- MIC (Streptococcus faecalis; strain 8 711): 50 U/ml
- MIC (Staphylococcus aureus; strain P 209): < 0.8 U/ml
- MIC (Staphylococcus aureus; strain SG 511): < 0.8 U/ml
- MIC (Serratia marcescens; strain 3): 400 U/ml
- MIC (Serratia marcescens; strain 7): 100 U/ml
- MIC (Serratia marcescens; strain 9): 6 U/ml
- MIC (Serratia marcescens; strain 13): 6 U/ml
- MIC (Serratia marcescens; strain K): 6 U/ml
- MIC (Proteus vulgaris; strain 3 400): 50 U/ml
- MIC (Haemophilus influenzae; strain 2 689): 1.6 U/ml
- MIC (Haemophilus influenzae; strain 2 718): 0.8 U/ml
- MIC (Haemophilus influenzae; strain 2 786): 1.6 U/ml
- MIC (Haemophilus influenzae; strain 2 788): < 0.4 U/ml
- effectiveness against infections (Klebsiella-Aerobacter [1]): only effective in man in the case of infections caused by Klebsiella-Aerobacter if administered in a continuous high dosage
- MIC (Proteus rettgeri; Sp.): 1.6 U/ml
- MIC (Proteus rettgeri; strain 1 050): > 400 U/ml
- MIC (Proteus rettgeri; strain 824): > 400 U/ml
- MIC (Klebsiella-Aerobacter [2]; aerogenes 418): 400 U/ml
- MIC (Klebsiella-Aerobacter [2]; strain 60): 100 U/ml
- MIC (Klebsiella-Aerobacter [2]; strain 62): 100 U/ml
- MIC (Klebsiella-Aerobacter [2]; strain 63, 24 hours, 37°C): 400 U/ml
- MIC (Klebsiella-Aerobacter [2]; strain 69): > 400 U/ml
- MIC (Klebsiella-Aerobacter [2]; strain 70): 400 U/ml
- MIC (Klebsiella-Aerobacter [2]; strain 75): > 400 U/ml
- MIC (Klebsiella-Aerobacter [2]; strain 1852): > 400 U/ml
- MIC (Klebsiella-Aerobacter [2]; strain 1871): 400 U/ml
- MIC (Klebsiella-Aerobacter [2]; strain K 10, 24 hours, 37°C): > 400 U/ml

Structure (SMILES): CNC(=O)N1CCN(C(=O)N[C@@H](C(=O)N[C@@H]2C(=O)N3[C@@H]2SC(C)(C)[C@@H]3C(=O)O)c2ccccc2)C1=O [Example 2, Sodium D(-)-α-[(3-methylaminocarbonyl-imidazolidin-2-on-1-yl)-carbonylamino]-benzylpenicillin]
- LD50 (in vivo): 3000 mg/kg
- MIC (Escherichia coli; strain 183/58, 24 hours, 37°C): 1.6 U/ml
- MIC (Escherichia coli; strain A 261, 24 hours, 37°C): 100 U/ml
- MIC (Escherichia coli; strain C 165, 24 hours, 37°C): 1.6 U/ml
- MIC (Pseudomonas aeruginosa; strain Bonn, 24 hours, 37°C): 50 U/ml
- MIC (Pseudomonas aeruginosa; strain Walter, 24 hours, 37°C): 25 U/ml
- MIC (Proteus morganii; strain 932, 24 hours, 37°C): 1.6 U/ml
- MIC (Streptococcus faecalis; ATCC 9790, 24 hours, 37°C): 50 U/ml
- MIC (Staphylococcus aureus; strain 133, 24 hours, 37°C): < 0.8 U/ml
- MIC (Staphylococcus aureus; strain 1756 (BRL 1 756), 24 hours, 37°C): 200 U/ml
- MIC (Proteus vulgaris; unit assumed): 6 µg/mL
- MIC (Klebsiella-Aerobacter [2]; strain 63, 24 hours, 37°C): 12.5 U/ml and 12 U/ml
- MIC (Klebsiella-Aerobacter [2]; strain K 10, 24 hours, 37°C): 50 U/ml
